The target of one test is JMJD2C (Homo sapiens (Human), UniProt Q9H3R0). Briefly: In vitro enzyme inhibition assay (JMJD2C TR-FRET). Format: biochemical. Conditions: 0.3 nM JMJD2C, 300 nM H3K9me3-biotin peptide, 2 μM alpha-ketoglutaric acid. The protocol: This assay determines the ability of a test compound to inhibit JMJD2C demethylase activity. Baculovirus expressed JMJD2C (GenBank Accession #BC143571, AA 2-372) was purchased from BPS Bioscience (Cat#50105).
The ability of test compounds to inhibit the activity of JMJD2C was determined in 384-well plate-format under the following reaction conditions: 0.3 nM JMJD2C, 300 nM H3K9me3-biotin labeled peptide (Anaspec cat #64360), 2 μM alpha-ketoglutaric acid in assay buffer of 50 mM HEPES, pH 7.3, 0.005% Brij35, 0.5 mM TCEP, 0.2 mg/ml BSA, 50 μM sodium L-ascorbate, and 2 μM ammonium iron(II) sulfate. Reaction product was determined quantitatively by TR-FRET after the addition of detection reagent Phycolink Streptavidin-allophycocyanin (Prozyme) and Europium-anti-di-methylated histone H3 lysine 9 (H3K9me2) antibody (PerkinElmer) in the presence of 5 mM EDTA in LANCE detection buffer (PerkinElmer) at a final concentration of 50 nM and 1 nM, respectively.
The assay reaction was initiated by the following: 2 μl of the mixture of 900 nM H3K9me3-biotin labeled peptide and 6 μM alpha-ketoglutaric acid with 2 μl of 11-point serial diluted inhibitor in 3% DMSO were added to each well of the plate, followed by the addition of 2 μl of 0.9 nM JMJD2C to initiate the reaction. The reaction mixture was incubated at room temperature for 30 min, and terminated by the addition of 6 μl of 5 mM EDTA in LANCE detection buffer containing 100 nM Phycolink Streptavidin-allophycocyanin and 2 nM Europium-anti-H3K9me2 antibody. Plates were read by EnVisionMultilabel Reader in TR-FRET mode (excitation at 320 nm, emission at 615 nm and 665 nm) after 1 hr incubation at room temperature. A ratio was calculated (665/615) for each well and fitted to determine inhibition constant (IC50).
The ability of the compounds disclosed herein to inhibit demethylase activity was quantified and the respective IC50 value was determined. Table 3 provides the IC50 values of various compounds disclosed herein.

Test [1] concerns KYSE-150 esophageal carcinoma cell line. Briefly: In vitro cell-based assay: BrdU cell proliferation ELISA. More on the design: species or system human. The conditions noted are these: Homo sapiens; KYSE-150 cells, BrdU incorporation after 168 hr of compound incubation; read-out: Cellular IC50. The protocol:
Cell lines tested include the JMJD2C gene amplified cell line KYSE-150. This is a quantitative ELISA assay measuring DNA incorporation of BrdU during S-phase as a direct readout of cellular proliferation.
Assay Principle: This is a colorimetric immunoassay for the quantification of cell proliferation. Cells treated for 168 hr with test compounds are assayed for their ability to go through S-phase as a measure of their proliferative potential.
Assay Method: The human KYSE-150 (SMAD4 mut, TP53 mut) esophageal carcinoma cell line was seeded at 2,000 cells/well on a 96-well tissue culture treated plate. After an overnight incubation, cells were treated with compound in an 11-point dilution series with final concentrations ranging from 100 μM to 2 nM. Cells were then incubated in the presence of compound for 168 hr. After compound incubation the cells were assayed using a BrdU Cell Proliferation ELISA (Roche). The cells were first incubated with BrdU labeling reagent for 2 hr. After 2 hr, the BrdU incorporated cells were fixed and denatured, probed with an anti-BrdU-Peroxidase antibody for 1.5 hr and washed. Finally, a tetramethylbenzidine peroxidase substrate was added to each well for 15 min. followed by a H2SO4 stop solution. The plate was read at 450 nm, and the raw optical density data was transferred into XLFit (IDBS) for IC50 calculation using the formula: fit=(D+((Vmax*(x^n))/((x^n)+(Km^n)))).
Table 4 provides the cellular IC50 values of various compounds disclosed herein.

Each structure is given as a SMILES string. A value given as a limit tells only on which side of the number the result lay.

JMJD2C, sequence (Q9H3R0 2-372): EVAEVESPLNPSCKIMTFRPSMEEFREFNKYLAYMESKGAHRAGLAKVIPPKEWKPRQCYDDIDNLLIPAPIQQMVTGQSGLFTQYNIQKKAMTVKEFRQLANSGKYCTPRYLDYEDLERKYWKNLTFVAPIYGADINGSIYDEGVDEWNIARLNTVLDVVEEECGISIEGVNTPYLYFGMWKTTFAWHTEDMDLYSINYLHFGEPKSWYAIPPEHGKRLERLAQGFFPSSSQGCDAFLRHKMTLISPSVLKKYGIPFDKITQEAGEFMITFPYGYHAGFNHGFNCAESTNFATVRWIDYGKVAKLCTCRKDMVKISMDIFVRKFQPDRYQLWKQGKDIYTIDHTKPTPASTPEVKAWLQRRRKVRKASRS

On to `CN1CCN(c2cccc(N(C)c3ccc(Oc4nc(O)c5ccncc5n4)cc3C(F)(F)F)c2)CC1` [Example 133, 2-(4-(methyl(3-(4-methylpiperazin-1-yl)phenyl)amino)-3-(trifluoromethyl)phenoxy)pyrido[3,4-d]pyrimidin-4-ol], for which the half-inhibitory concentration (IC50) is ≤ 100 nM against JMJD2C and 1 to 10 µM in test [1].

In the case of `CCCN(c1ccc(Oc2nc(O)c3ccncc3n2)cc1)c1ccc(C(C)C)cc1` [Example 120, 2-(4-((4-isopropylphenyl)(propyl)amino)phenoxy)pyrido[3,4-d]pyrimidin-4-ol], the 50% inhibitory concentration (IC50) against JMJD2C lay within 100 to 1000 nM; in test [1] it was 1 to 10 µM.

As for `CCN1CCN(c2cccc(N(C)c3ccc(Oc4nc(O)c5ccncc5n4)cc3)c2)CC1` [Example 138, 2-(4-((3-(4-ethylpiperazin-1-yl)phenyl)(methyl)amino)phenoxy)pyrido[3,4-d]pyrimidin-4-ol], the 50% inhibitory concentration (IC50) was ≤ 100 nM against JMJD2C and 1 to 10 µM in test [1].

With `CC(C)c1ccc(N(c2ccc(Oc3nc(O)c4ccncc4n3)cc2)C2CCN(C)CC2)cc1` [Example 119, 2-(4-((4-isopropylphenyl)(1-methylpiperidin-4-yl)amino)phenoxy)pyrido[3,4-d]pyrimidin-4-ol], the IC50 against JMJD2C was ≤ 100 nM; in test [1] it was > 10 µM.

Consider `CCc1ccc(N(C)c2ccc(Oc3nc(O)c4ccncc4n3)cc2)c(OC)c1` [Example 137, 2-(4-((4-ethyl-2-methoxyphenyl)(methyl)amino)phenoxy)pyrido[3,4-d]pyrimidin-4-ol], for which the IC50 is 100 to 1000 nM on JMJD2C and > 10 µM in test [1].

Consider `CC(C)c1ccc(N(c2ccc(Oc3nc(O)c4ccncc4n3)cc2)C2CCCN(C)C2)cc1` (centres unmarked) [Example 124, 2-(4-((4-isopropylphenyl)(1-methylpiperidin-3-yl)amino)phenoxy)pyrido[3,4-d]pyrimidin-4-ol], for which the IC50 is ≤ 100 nM against JMJD2C and 1 to 10 µM in test [1].

For the compound `CC(C)c1ccc(Nc2ccc(Oc3nc(O)c4ccncc4n3)cc2)cc1` [Example 121, 2-(4-((4-isopropylphenyl)amino)phenoxy)pyrido[3,4-d]pyrimidin-4-ol], the IC50 against JMJD2C was ≤ 100 nM; in test [1] it was 1 to 10 µM.

The record behind these values is US10202381B2, “Histone demethylase inhibitors” (CELGENE QUANTICEL RESEARCH, INC., priority 2014, dated 2019).
